# Assay results published in US6303630A, “Diarylsulfone non-nucleoside reverse transcriptase inhibitors of human immunodeficiency virus” (University of the Sciences in Philadelphia, priority 2000, dated 2001).
# System: HIV-1
# Experiment: NCI in vitro anti-HIV drug screen: XTT-formazan assay, protection of T4 lymphocytes (CEM) from HIV-1 cytopathic effects
# Format: cell-based, human immunodeficiency virus (HIV-1)
# Conditions: Human immunodeficiency virus 1, CCRF-CEM, 144 h; HIV-1 infected CEM cells, 6 days, XTT; approximate values; read-out: EC50 (50% effective concentration against HIV cytopathic effects)
# Experimental: Compounds of the present invention were evaluated for anti-HIV efficacy by the National Cancer Institute's (NCI) In Vitro Anti AIDS Drug Discovery Program.
# (§1) The NCI procedure is fully described, for example, in a bulletin provided by the National Institutes of Health, National Cancer Institute, Bethesda, Md. 20892, all of which is incorporated herein by reference. As related in the NCI bulletin, the procedure is based on O. W. Weislow et al., "New soluble-formazan assay for HIV-1 cytopathic effects: application to high flux screening of synthetic and natural products for AIDS-antiviral activity", J. Natl. Cancer Inst. 81:577-586 (1989), and is used to test for compounds active against human immunodeficiency virus (HIV), and is designed to detect compounds active at any stage of the virus reproductive cycle. As further related in the NCI bulletin, the assay includes killing of T4 lymphocytes by HIV. Amounts of HIV are added to cells, with a minimum of two cycles of virus reproduction found to be necessary to obtain the required cell killing. Compounds that interact with virions, cells, or virus gene-products to interfere with viral activities will protect cells from cytolysis. All were compared with a positive (e.g., AZT-treated) control evaluation at the same time under identical conditions. The procedure is set forth as follows:
# (§2) A candidate compound is first dissolved in a suitable solvent, preferably dimethyl sulfoxide, then diluted 1:100 in cell culture medium before preparing serial half-log10 dilutions. T4 lymphocytes (CEM cell line) are then added and after a brief interval HIV-1 is added, resulting in a 1:200 final dilution of the compound. Uninfected cells with the compound serve as a toxicity control, and infected and uninfected without the compound serve as basic controls. Cultures are then incubated at 37° in a 5% carbon dioxide atmosphere for 6 days. The tetrazolium salt, XTT, is added to all wells, and cultures are incubated to allow formazan color development by viable cells. Individual wells are analyzed spectrophotometrically to quantitate formazan product, and in addition are viewed microscopically for detection of viable cells and confirmation of protective activity. Drug-treated virus-infected cells are compared with drug-treated noninfected cells and with other appropriate controls (untreated infected and untreated noninfected cells, drug-containing wells without cells, etc.) on the same plate. Data are reviewed in comparison with other tests performed at the same time and a determination as to activity is made.
row,Compound,EC50
1,"CCNc1ccccc1S(=O)(=O)c1ccccc1[N+](=O)[O-] [Compound 81, 2-(2-NITROPHENYLSULFONYL)-N-ETHYLANILINE]",2320 nM

# Same assay, conditions: Human immunodeficiency virus 1, CCRF-CEM, dose 2.00 × 10^-4 Molar; read-out: Percent of Protection
row,Compound,inhibition at 200 µM
1,"CCNc1ccccc1S(=O)(=O)c1ccccc1[N+](=O)[O-] [Compound 81, 2-(2-NITROPHENYLSULFONYL)-N-ETHYLANILINE]",17.2%

# Same assay, conditions: Human immunodeficiency virus 1, CCRF-CEM, dose 2.00 × 10^-5 Molar; read-out: Percent of Protection
row,Compound,inhibition at 20 µM
1,"CCNc1ccccc1S(=O)(=O)c1ccccc1[N+](=O)[O-] [Compound 81, 2-(2-NITROPHENYLSULFONYL)-N-ETHYLANILINE]",53.6%

# Same assay, conditions: Human immunodeficiency virus 1, CCRF-CEM, dose 2.00 × 10^-6 Molar; read-out: Percent of Protection
row,Compound,inhibition at 2 µM
1,"CCNc1ccccc1S(=O)(=O)c1ccccc1[N+](=O)[O-] [Compound 81, 2-(2-NITROPHENYLSULFONYL)-N-ETHYLANILINE]",46.1%

# Same assay, conditions: Human immunodeficiency virus 1, CCRF-CEM, dose 2.00 × 10^-7 Molar; read-out: Percent of Protection
row,Compound,inhibition at 0.2 µM
1,"CCNc1ccccc1S(=O)(=O)c1ccccc1[N+](=O)[O-] [Compound 81, 2-(2-NITROPHENYLSULFONYL)-N-ETHYLANILINE]",1.5%

# Same assay, conditions: Human immunodeficiency virus 1, CCRF-CEM, dose 6.32 × 10^-5 Molar; read-out: Percent of Protection
row,Compound,inhibition at 63.2 µM
1,"CCNc1ccccc1S(=O)(=O)c1ccccc1[N+](=O)[O-] [Compound 81, 2-(2-NITROPHENYLSULFONYL)-N-ETHYLANILINE]",-15%

# Same assay, conditions: Human immunodeficiency virus 1, CCRF-CEM, dose 6.33 × 10^-6 Molar; read-out: Percent of Protection
row,Compound,inhibition at 6.33 µM
1,"CCNc1ccccc1S(=O)(=O)c1ccccc1[N+](=O)[O-] [Compound 81, 2-(2-NITROPHENYLSULFONYL)-N-ETHYLANILINE]",81.4%

# Same assay, conditions: Human immunodeficiency virus 1, CCRF-CEM, dose 6.34 × 10^-7 Molar; read-out: Percent of Protection
row,Compound,inhibition at 0.634 µM
1,"CCNc1ccccc1S(=O)(=O)c1ccccc1[N+](=O)[O-] [Compound 81, 2-(2-NITROPHENYLSULFONYL)-N-ETHYLANILINE]",31.3%

# Same assay, conditions: Human immunodeficiency virus 1, CCRF-CEM, dose 6.35 × 10^-8 Molar; read-out: Percent of Protection
row,Compound,inhibition at 0.0635 µM
1,"CCNc1ccccc1S(=O)(=O)c1ccccc1[N+](=O)[O-] [Compound 81, 2-(2-NITROPHENYLSULFONYL)-N-ETHYLANILINE]",5.99%

# Same assay, conditions: Human immunodeficiency virus 1, Lymphocyte, dose 2.00 × 10^-4 Molar; read-out: Percent of Control, Infected
row,Compound,activity at 200 µM
1,"CCNc1ccccc1S(=O)(=O)c1ccccc1[N+](=O)[O-] [Compound 81, 2-(2-NITROPHENYLSULFONYL)-N-ETHYLANILINE]",43.7%

# Same assay, conditions: Human immunodeficiency virus 1, Lymphocyte, dose 2.00 × 10^-5 Molar; read-out: Percent of Control, Infected
row,Compound,activity at 20 µM
1,"CCNc1ccccc1S(=O)(=O)c1ccccc1[N+](=O)[O-] [Compound 81, 2-(2-NITROPHENYLSULFONYL)-N-ETHYLANILINE]",68.5%

# Same assay, conditions: Human immunodeficiency virus 1, Lymphocyte, dose 2.00 × 10^-6 Molar; read-out: Percent of Control, Infected
row,Compound,activity at 2 µM
1,"CCNc1ccccc1S(=O)(=O)c1ccccc1[N+](=O)[O-] [Compound 81, 2-(2-NITROPHENYLSULFONYL)-N-ETHYLANILINE]",63.3%

# Same assay, conditions: Human immunodeficiency virus 1, Lymphocyte, dose 2.00 × 10^-7 Molar; read-out: Percent of Control, Infected
row,Compound,activity at 0.2 µM
1,"CCNc1ccccc1S(=O)(=O)c1ccccc1[N+](=O)[O-] [Compound 81, 2-(2-NITROPHENYLSULFONYL)-N-ETHYLANILINE]",33%

# Same assay, conditions: Human immunodeficiency virus 1, Lymphocyte, dose 6.32 × 10^-5 Molar; read-out: Percent of Control, Infected
row,Compound,activity at 63.2 µM
1,"CCNc1ccccc1S(=O)(=O)c1ccccc1[N+](=O)[O-] [Compound 81, 2-(2-NITROPHENYLSULFONYL)-N-ETHYLANILINE]",21.8%

# Same assay, conditions: Human immunodeficiency virus 1, Lymphocyte, dose 6.33 × 10^-6 Molar; read-out: Percent of Control, Infected
row,Compound,activity at 6.33 µM
1,"CCNc1ccccc1S(=O)(=O)c1ccccc1[N+](=O)[O-] [Compound 81, 2-(2-NITROPHENYLSULFONYL)-N-ETHYLANILINE]",87.3%

# Same assay, conditions: Human immunodeficiency virus 1, Lymphocyte, dose 6.34 × 10^-7 Molar; read-out: Percent of Control, Infected
row,Compound,activity at 0.634 µM
1,"CCNc1ccccc1S(=O)(=O)c1ccccc1[N+](=O)[O-] [Compound 81, 2-(2-NITROPHENYLSULFONYL)-N-ETHYLANILINE]",53.3%

# Same assay, conditions: Human immunodeficiency virus 1, Lymphocyte, dose 6.35 × 10^-8 Molar; read-out: Percent of Control, Infected
row,Compound,activity at 0.0635 µM
1,"CCNc1ccccc1S(=O)(=O)c1ccccc1[N+](=O)[O-] [Compound 81, 2-(2-NITROPHENYLSULFONYL)-N-ETHYLANILINE]",36.1%

# Same assay, conditions: IC50/EC50
row,Compound,"TI50 (IC/EC), Therapeutic Index"
1,"CCNc1ccccc1S(=O)(=O)c1ccccc1[N+](=O)[O-] [Compound 81, 2-(2-NITROPHENYLSULFONYL)-N-ETHYLANILINE]",1.39 × 10^+1

# System: T4 lymphocytes (CEM cell line)
# Experiment: Cell growth / toxicity control in uninfected T4 lymphocytes (CEM), XTT-formazan
# Format: cell-based
# Conditions: Homo sapiens, CCRF-CEM, 144 h, uninfected CEM cells, 6 days, XTT; approximate values; read-out: IC50 (50% inhibitory concentration for cell growth)
# Source text: as §1, §2
row,Compound,IC50
1,"CCNc1ccccc1S(=O)(=O)c1ccccc1[N+](=O)[O-] [Compound 81, 2-(2-NITROPHENYLSULFONYL)-N-ETHYLANILINE]",32.2 µM

# Same assay, conditions: Homo sapiens, CCRF-CEM, dose 2.00 × 10^-4 Molar; read-out: Percent of Control, Uninfected
row,Compound,activity at 200 µM
1,"CCNc1ccccc1S(=O)(=O)c1ccccc1[N+](=O)[O-] [Compound 81, 2-(2-NITROPHENYLSULFONYL)-N-ETHYLANILINE]",13.7%

# Same assay, conditions: Homo sapiens, CCRF-CEM, dose 2.00 × 10^-5 Molar; read-out: Percent of Control, Uninfected
row,Compound,activity at 20 µM
1,"CCNc1ccccc1S(=O)(=O)c1ccccc1[N+](=O)[O-] [Compound 81, 2-(2-NITROPHENYLSULFONYL)-N-ETHYLANILINE]",68.6%

# Same assay, conditions: Homo sapiens, CCRF-CEM, dose 2.00 × 10^-6 Molar; read-out: Percent of Control, Uninfected
row,Compound,activity at 2 µM
1,"CCNc1ccccc1S(=O)(=O)c1ccccc1[N+](=O)[O-] [Compound 81, 2-(2-NITROPHENYLSULFONYL)-N-ETHYLANILINE]",89%

# Same assay, conditions: Homo sapiens, CCRF-CEM, dose 2.00 × 10^-7 Molar; read-out: Percent of Control, Uninfected
row,Compound,activity at 0.2 µM
1,"CCNc1ccccc1S(=O)(=O)c1ccccc1[N+](=O)[O-] [Compound 81, 2-(2-NITROPHENYLSULFONYL)-N-ETHYLANILINE]",70.7%

# Same assay, conditions: Homo sapiens, CCRF-CEM, dose 6.32 × 10^-5 Molar; read-out: Percent of Control, Uninfected
row,Compound,activity at 63.2 µM
1,"CCNc1ccccc1S(=O)(=O)c1ccccc1[N+](=O)[O-] [Compound 81, 2-(2-NITROPHENYLSULFONYL)-N-ETHYLANILINE]",23.6%

# Same assay, conditions: Homo sapiens, CCRF-CEM, dose 6.33 × 10^-6 Molar; read-out: Percent of Control, Uninfected
row,Compound,activity at 6.33 µM
1,"CCNc1ccccc1S(=O)(=O)c1ccccc1[N+](=O)[O-] [Compound 81, 2-(2-NITROPHENYLSULFONYL)-N-ETHYLANILINE]",83.1%

# Same assay, conditions: Homo sapiens, CCRF-CEM, dose 6.34 × 10^-7 Molar; read-out: Percent of Control, Uninfected
row,Compound,activity at 0.634 µM
1,"CCNc1ccccc1S(=O)(=O)c1ccccc1[N+](=O)[O-] [Compound 81, 2-(2-NITROPHENYLSULFONYL)-N-ETHYLANILINE]",89.4%

# Same assay, conditions: Homo sapiens, CCRF-CEM, dose 6.35 × 10^-8 Molar; read-out: Percent of Control, Uninfected
row,Compound,activity at 0.0635 µM
1,"CCNc1ccccc1S(=O)(=O)c1ccccc1[N+](=O)[O-] [Compound 81, 2-(2-NITROPHENYLSULFONYL)-N-ETHYLANILINE]",93.7%
